Assay results published in patent US11858941B2, “Heterocyclic and heteroaryl compounds for treating Huntington's disease” (PTC THERAPEUTICS, INC., priority 2018, dated 2024).
pIC50: −log10 of the molar value.

Tested on: Endogenous Huntingtin Protein
Assay: Endogenous Huntingtin Protein Assay (Meso Scale Discovery ELISA-based electrochemiluminescence)
Type: cell-based
Settings: MSD plates coated with MW1 (expanded polyglutamine) or MAB2166 capture antibody; lysates
Protocol: Compounds of Formula (I) were tested using the Meso Scale Discovery (MSD) Assay provided in International Application No. PCT/US2016/066042, filed on Dec. 11, 2016 and claiming priority to United States Provisional Application U.S. 62/265,652 filed on Dec. 10, 2015, the entire contents of which are incorporated herein by reference.
The Endogenous Huntingtin Protein assay used in Example 1 was developed using the ELISA-based MSD electrochemiluminescence assay platform.
Endogenous Huntingtin Protein Assay
Meso Scale Discovery (MSD) 96-well or 384-well plates were coated overnight at 4° C. with MW1 (expanded polyglutamine) or MAB2166 monoclonal antibody (for capture) at a concentration of 1 μg/mL in PBS (30 μL per well). Plates were then washed three times with 300 μL wash buffer (0.05% Tween-20 in PBS) and blocked (100 μL blocking buffer; 5% BSA in PBS) for 4-5 hours at room temperature with rotational shaking and then washed three times with wash buffer.
Samples (25 μL) were transferred to the antibody-coated MSD plate and incubated overnight at 4° C. After removal of the lysates, the plate was washed three times with wash buffer, and 25 μL of #5656S (Cell signaling; rabbit monoclonal) secondary antibody (diluted to 0.25 μg/mL in 0.05% Tween-20 in blocking buffer) was added to each well and incubated with shaking for 1 Hour at room temperature. Following incubation with the secondary antibody, the wells were rinsed with wash buffer after which 25 μL of goat anti-rabbit SULFO TAG secondary detection antibody (required aspect of the MSD system) (diluted to 0.25 μg/mL in 0.05% Tween-20 in blocking buffer) was added to each well and incubated with shaking for 1 hour at room temperature. After rinsing three times with wash buffer, 150 μL of read buffer T with surfactant (MSD) were added to each empty well, and the plate was imaged on a SI 6000 imager (MSD) according to manufacturers' instructions provided for 96- or 384-well plates.

Row | SMILES | pIC50
1 | CC1(C)CC(n2nnc3cc(-c4ccc(-n5nccn5)cc4O)nnc32)CC(C)(C)N1 [Cpd 163, 2-[3-(2,2,6,6-tetramethylpiperidin-4-yl)-3H-[1,2,3]triazolo[4,5-c]pyridazin-6-yl]-5-(2H-1,2,3-triazol-2-yl)phenol] | ≥ 7.00
2 | CC1(C)CC(n2nnc3cc(-c4ccc(-c5ccnc(N)c5)cc4O)nnc32)CC(C)(C)N1 [Cpd 99, 5-(2-aminopyridin-4-yl)-2-[3-(2,2,6,6-tetramethylpiperidin-4-yl)-3H-[1,2,3]triazolo[4,5-c]pyridazin-6-yl]phenol] | ≥ 7.00
3 | CC1(C)CC(n2nnc3cc(-c4cc(O)c(-c5cn[nH]c5)cc4F)nnc32)CC(C)(C)N1 [Cpd 33, 4-fluoro-2-(1H-pyrazol-4-yl)-5-[3-(2,2,6,6-tetramethylpiperidin-4-yl)-3H-[1,2,3]triazolo[4,5-c]pyridazin-6-yl]phenol] | 6.00 to 6.30
4 | CC1(C)CC(n2nnc3cc(-c4ccc(-c5ccncn5)cc4O)nnc32)CC(C)(C)N1 [Cpd 75, 5-(pyrimidin-4-yl)-2-[3-(2,2,6,6-tetramethylpiperidin-4-yl)-3H-[1,2,3]triazolo[4,5-c]pyridazin-6-yl]phenol] | 6.30 to 7.00
5 | CC1(C)CC(n2nnc3cc(-c4ccc(-c5cn[nH]c5)cc4O)nnc32)CC(C)(C)N1 [Cpd 7, 5-(1H-pyrazol-4-yl)-2-[3-(2,2,6,6-tetramethylpiperidin-4-yl)-3H-[1,2,3]triazolo[4,5-c]pyridazin-6-yl]phenol] | ≥ 7.00
6 | CC1(C)CC(n2nnc3cc(-c4ccc(-c5ncco5)cc4O)nnc32)CC(C)(C)N1 [Cpd 111, 5-(1,3-oxazol-2-yl)-2-[3-(2,2,6,6-tetramethylpiperidin-4-yl)-3H-[1,2,3]triazolo[4,5-c]pyridazin-6-yl]phenol] | ≥ 7.00
7 | CC1(C)CC(n2nnc3cc(-c4cc(F)c(-c5ccncc5)cc4O)nnc32)CC(C)(C)N1 [Cpd 87, 4-fluoro-5-(pyridin-4-yl)-2-[3-(2,2,6,6-tetramethylpiperidin-4-yl)-3H-[1,2,3]triazolo[4,5-c]pyridazin-6-yl]phenol] | 6.30 to 7.00
8 | CC1(C)CC(n2nnc3cc(-c4ncc(-c5cn[nH]c5)cc4O)nnc32)CC(C)(C)N1 [Cpd 140, 5-(1H-pyrazol-4-yl)-2-[3-(2,2,6,6-tetramethylpiperidin-4-yl)-3H-[1,2,3]triazolo[4,5-c]pyridazin-6-yl]pyridin-3-ol] | ≥ 7.00
9 | CC1(C)CC(n2nnc3cc(-c4ccc(-c5ccncc5F)cc4O)nnc32)CC(C)(C)N1 [Cpd 101, 5-(3-fluoropyridin-4-yl)-2-[3-(2,2,6,6-tetramethylpiperidin-4-yl)-3H-[1,2,3]triazolo[4,5-c]pyridazin-6-yl]phenol] | 6.00 to 6.30
10 | CC1(C)CC(n2nnc3cc(-c4ccc(-c5cc6nn[nH]c6cn5)cc4O)nnc32)CC(C)(C)N1 [Cpd 146, 2-[3-(2,2,6,6-tetramethylpiperidin-4-yl)-3H-[1,2,3]triazolo[4,5-c]pyridazin-6-yl]-5-(3H-[1,2,3]triazolo[4,5-c]pyridin-6-yl)phenol] | 5.52 to 6.00
11 | CC1(C)CC(n2ncc3cc(-c4ccc(-c5cn[nH]c5)cc4O)nnc32)CC(C)(C)N1 [Cpd 22, 5-(1H-pyrazol-4-yl)-2-[1-(2,2,6,6-tetramethylpiperidin-4-yl)-1H-pyrazolo[3,4-c]pyridazin-5-yl]phenol] | ≥ 7.00
12 | Cn1ncc(-c2ccc(-c3cc4nnn(C5CC(C)(C)NC(C)(C)C5)c4nn3)c(O)c2)c1F [Cpd 121, 5-(5-fluoro-1-methyl-1H-pyrazol-4-yl)-2-[3-(2,2,6,6-tetramethylpiperidin-4-yl)-3H-[1,2,3]triazolo[4,5-c]pyridazin-6-yl]phenol] | ≥ 7.00
13 | Cc1ccn(-c2ccc(-c3cc4nnn(C5CC(C)(C)NC(C)(C)C5)c4nn3)c(O)c2)n1 [Cpd 157, 5-(3-methyl-1H-pyrazol-1-yl)-2-(3-(2,2,6,6-tetramethylpiperidin-4-yl)-3H-[1,2,3]triazolo[4,5-c]pyridazin-6-yl)phenol] | 6.30 to 7.00
14 | CC1(C)CC(n2nnc3cc(-c4ccc(-c5cnc6nccn6c5)cc4O)nnc32)CC(C)(C)N1 [Cpd 160, 5-(imidazo[1,2-a]pyrimidin-6-yl)-2-(3-(2,2,6,6-tetramethylpiperidin-4-yl)-3H-[1,2,3]triazolo[4,5-c]pyridazin-6-yl)phenol] | 6.30 to 7.00
15 | CC1(C)CC(n2nnc3cc(-c4ccc(-c5c[nH]nc5C(F)(F)F)cc4O)nnc32)CC(C)(C)N1 [Cpd 139, 2-[3-(2,2,6,6-tetramethylpiperidin-4-yl)-3H-[1,2,3]triazolo[4,5-c]pyridazin-6-yl]-5-[3-(trifluoromethyl)-1H-pyrazol-4-yl]phenol] | 6.30 to 7.00
16 | CC1(C)CC(n2ccc3cc(-c4ccc(-c5cn[nH]c5)cc4O)nnc32)CC(C)(C)N1 [Cpd 26, 5-(1H-pyrazol-4-yl)-2-[7-(2,2,6,6-tetramethylpiperidin-4-yl)-7H-pyrrolo[2,3-c]pyridazin-3-yl]phenol] | ≥ 7.00
17 | CC1(C)CC(n2nnc3cc(-c4ccc(-c5c[nH]cn5)cc4O)nnc32)CC(C)(C)N1 [Cpd 115, 5-(1H-imidazol-4-yl)-2-[3-(2,2,6,6-tetramethylpiperidin-4-yl)-3H-[1,2,3]triazolo[4,5-c]pyridazin-6-yl]phenol] | 6.30 to 7.00
18 | Cc1cn(-c2ccc(-c3cc4nnn(C5CC(C)(C)NC(C)(C)C5)c4nn3)c(O)c2)cn1 [Cpd 144, 5-(4-methyl-1H-imidazol-1-yl)-2-[3-(2,2,6,6-tetramethylpiperidin-4-yl)-3H-[1,2,3]triazolo[4,5-c]pyridazin-6-yl]phenol] | ≥ 7.00
19 | Cc1nc2cc(-c3cc(F)c(-c4cn[nH]c4)cc3F)nnc2n1C1CC(C)(C)NC(C)(C)C1 [Cpd 6, 3-[2,5-difluoro-4-(1H-pyrazol-4-yl)phenyl]-6-methyl-7-(2,2,6,6-tetramethylpiperidin-4-yl)-7H-imidazo[4,5-c]pyridazine] | 6.00 to 6.30
20 | CC1(C)CC(n2nnc3cc(-c4cc(F)c(-c5ccc(O)cc5)cc4O)nnc32)CC(C)(C)N1 [Cpd 53, 6-fluoro-4-[3-(2,2,6,6-tetramethylpiperidin-4-yl)-3H-[1,2,3]triazolo[4,5-c]pyridazin-6-yl][1,1′-biphenyl]-3,4′-diol] | ≥ 7.00
21 | CC(C)(C)NC1CCC(n2nnc3cc(-c4ccc(-c5cn[nH]c5)cc4O)nnc32)C1 (stereo not drawn) [Cpd 175, 2-{3-[3-(tert-butylamino)cyclopentyl]-3H-[1,2,3]triazolo[4,5-c]pyridazin-6-yl}-5-(1H-pyrazol-4-yl)phenol] | 6.00 to 6.30
22 | CC1(C)CC(n2nnc3cc(-c4ccc(-c5ccn(C6CC6)c(=O)c5)cc4O)nnc32)CC(C)(C)N1 [Cpd 86, 1-cyclopropyl-4-{3-hydroxy-4-[3-(2,2,6,6-tetramethylpiperidin-4-yl)-3H-[1,2,3]triazolo[4,5-c]pyridazin-6-yl]phenyl}pyridin-2(1H)-one] | 5.52 to 6.00
23 | CC1(C)CC(n2nnc3cc(-c4ccc(-c5ccc(O)cc5)cc4O)nnc32)CC(C)(C)N1 [Cpd 38, 4-[3-(2,2,6,6-tetramethylpiperidin-4-yl)-3H-[1,2,3]triazolo[4,5-c]pyridazin-6-yl]biphenyl-3,4′-diol] | ≥ 7.00
24 | CC1(C)CC(n2ccc3nc(-c4ccc(-c5cn[nH]c5)cc4O)cnc32)CC(C)(C)N1 [Cpd 10, 5-(1H-pyrazol-4-yl)-2-[5-(2,2,6,6-tetramethylpiperidin-4-yl)-5H-pyrrolo[2,3-b]pyrazin-2-yl]phenol] | ≥ 7.00
